Values joined by “and” are separate entries in the source; they are usually repeats but may differ in a detail not shown here. Equal values may be shown once.
Settings: 303.16 K, Liquid, Vibrating tube method

CCCC(=O)OCC(COC(=O)CCC)(COC(=O)CCC)COC(=O)CCC [pentaerythritol tetrabutyrate]
Settings | mass density
3999.8 kPa | 1044.9 kg/m3
4021.6 kPa | 1044.7 kg/m3
4043.6 kPa | 1044.8 kg/m3
4069.7 kPa | 1044.7 kg/m3
4092.1 kPa | 1044.9 kg/m3
4114.1 kPa | 1044.9 kg/m3
4137.5 kPa | 1044.9 kg/m3
4161.7 kPa | 1045 kg/m3
4182.5 kPa | 1044.9 kg/m3
4206.7 kPa | 1045.1 kg/m3
4227.1 kPa | 1044.9 kg/m3
4251.9 kPa | 1044.9 kg/m3
4272.5 kPa | 1044.9 kg/m3
4293.5 kPa | 1045.1 kg/m3
4314.4 kPa | 1045 kg/m3
4335.5 kPa | 1045 kg/m3
4361 kPa | 1045.1 kg/m3
4381.9 kPa | 1045 kg/m3
4403.9 kPa | 1045 kg/m3
4429.5 kPa | 1045.1 kg/m3
4451.4 kPa | 1045.1 kg/m3
4473.3 kPa | 1044.9 kg/m3
4495 kPa | 1045.2 kg/m3
4520.9 kPa | 1045.2 kg/m3
4542.9 kPa | 1045.2 kg/m3
4569.8 kPa | 1045.3 kg/m3
4592.6 kPa | 1045.1 kg/m3
4616.5 kPa | 1045.2 kg/m3
4644.7 kPa | 1045.3 kg/m3
4667.4 kPa | 1045.2 kg/m3
4686.4 kPa | 1045.3 kg/m3
4703.6 kPa | 1045.4 kg/m3
4720.4 kPa | 1045.3 kg/m3
4741.5 kPa | 1045.3 kg/m3
4758.3 kPa | 1045.4 kg/m3
4771.9 kPa | 1045.4 kg/m3
4786.8 kPa | 1045.4 kg/m3
4797.7 kPa | 1045.2 kg/m3
4827.1 kPa | 1045.4 kg/m3
4830.1 kPa | 1045.3 kg/m3
4830.9 kPa | 1045.3 kg/m3
4834.9 kPa | 1045.4 kg/m3
4837.9 kPa | 1045.4 kg/m3
4839.4 kPa | 1045.4 kg/m3
4840.5 kPa | 1045.3 kg/m3
4841.7 kPa | 1045.4 kg/m3
4842.2 kPa | 1045.4 kg/m3
4842.7 kPa | 1045.4 kg/m3
4842.9 kPa | 1045.3 kg/m3
4843.4 kPa | 1045.4 kg/m3 and 1045.3 kg/m3
4843.9 kPa | 1045.3 kg/m3 and 1045.4 kg/m3
4844.1 kPa | 1045.3 kg/m3
4844.4 kPa | 1045.4 kg/m3
4865 kPa | 1045.3 kg/m3
4897.7 kPa | 1045.4 kg/m3
4931.1 kPa | 1045.4 kg/m3
4970.1 kPa | 1045.4 kg/m3
4994.6 kPa | 1045.4 kg/m3
5016.4 kPa | 1045.4 kg/m3
5038.9 kPa | 1045.5 kg/m3
5061.8 kPa | 1045.5 kg/m3
5088.8 kPa | 1045.5 kg/m3
5111.4 kPa | 1045.4 kg/m3
5139.1 kPa | 1045.4 kg/m3
5162.8 kPa | 1045.5 kg/m3
5186.5 kPa | 1045.5 kg/m3
5210.6 kPa | 1045.6 kg/m3
5239.4 kPa | 1045.7 kg/m3
5264.7 kPa | 1045.6 kg/m3
5290.3 kPa | 1045.6 kg/m3
5317.3 kPa | 1045.7 kg/m3
5342.9 kPa | 1045.5 kg/m3
5367.5 kPa | 1045.7 kg/m3
5393.1 kPa | 1045.6 kg/m3
5414.2 kPa | 1045.7 kg/m3
5436 kPa | 1045.7 kg/m3
5462.1 kPa | 1045.7 kg/m3
5484.2 kPa | 1045.7 kg/m3
5506.7 kPa | 1045.7 kg/m3
5533.5 kPa | 1045.7 kg/m3
5556 kPa | 1045.9 kg/m3
5579 kPa | 1045.8 kg/m3
5603.2 kPa | 1045.8 kg/m3
5627.4 kPa | 1045.9 kg/m3
5651.3 kPa | 1045.8 kg/m3
5674.9 kPa | 1045.9 kg/m3
5703.6 kPa | 1045.9 kg/m3
5728 kPa | 1046 kg/m3
5753.1 kPa | 1045.9 kg/m3
5783.4 kPa | 1046 kg/m3
5808.8 kPa | 1046 kg/m3
5831.6 kPa | 1045.9 kg/m3
5852.2 kPa | 1046 kg/m3
5876.5 kPa | 1046.1 kg/m3
5897.6 kPa | 1046.1 kg/m3
5918.4 kPa | 1046.1 kg/m3
5939.8 kPa | 1046.1 kg/m3
5964.7 kPa | 1046.1 kg/m3
5986.2 kPa | 1046.1 kg/m3
6007.4 kPa | 1046.3 kg/m3
6033.9 kPa | 1046.1 kg/m3
6056.2 kPa | 1046.2 kg/m3
6079 kPa | 1046.2 kg/m3
6101.4 kPa | 1046.1 kg/m3
6124.1 kPa | 1046.2 kg/m3
6142.1 kPa | 1046.1 kg/m3
6159.7 kPa | 1046.1 kg/m3
6178 kPa | 1046.1 kg/m3
6190.3 kPa | 1046.2 kg/m3
6202.4 kPa | 1046.2 kg/m3
6213.1 kPa | 1046.2 kg/m3
6221.2 kPa | 1046.3 kg/m3
6226.4 kPa | 1046.2 kg/m3
6231.1 kPa | 1046.2 kg/m3
6237.5 kPa | 1046.3 kg/m3
6242.1 kPa | 1046.3 kg/m3
6247.5 kPa | 1046.2 kg/m3
6252.7 kPa | 1046.3 kg/m3
6258.9 kPa | 1046.2 kg/m3
6263.7 kPa | 1046.2 kg/m3
6268.7 kPa | 1046.4 kg/m3
6273.9 kPa | 1046.3 kg/m3
6280.5 kPa | 1046.3 kg/m3
6285.5 kPa | 1046.3 kg/m3
6290.3 kPa | 1046.4 kg/m3
6296 kPa | 1046.2 kg/m3
6300.7 kPa | 1046.2 kg/m3
6304.9 kPa | 1046.2 kg/m3
6309.5 kPa | 1046.2 kg/m3
6312.6 kPa | 1046.3 kg/m3
6314.7 kPa | 1046.4 kg/m3
6316.4 kPa | 1046.2 kg/m3
6325.3 kPa | 1046.3 kg/m3
6353.3 kPa | 1046.3 kg/m3
6384.4 kPa | 1046.4 kg/m3
6414.9 kPa | 1046.3 kg/m3
6445.5 kPa | 1046.5 kg/m3
6469.5 kPa | 1046.4 kg/m3
6493.9 kPa | 1046.3 kg/m3
6597.9 kPa | 1046.5 kg/m3
6628 kPa | 1046.5 kg/m3
6653.7 kPa | 1046.6 kg/m3
6679.6 kPa | 1046.5 kg/m3
6706.4 kPa | 1046.5 kg/m3
6732.8 kPa | 1046.5 kg/m3
6763.9 kPa | 1046.7 kg/m3

— the NIST ThermoML archive (doi:10.1021/je060271a)
